According to patent US8084649B2, “Herbicides” (Syngenta Crop Protection, inc., priority 2007, dated 2011):

System: Setaria faberi (SETFA)
Assay: Post-emergence herbicidal activity, glasshouse pot test
Type: in vivo
Details: Setaria faberi, rate 125 g/ha, evaluated after 14 or 15 days, read-out: Post-emergence activity, SETFA (100=total damage to plant; 0=no damage to plant)
Description: (§1) Monocotyledonous and dicotyledonous test plants were sown in sterilised standard soil in pots. After cultivation for one day (pre-emergence) or after 10 days cultivation (post-emergence) under controlled conditions in a glasshouse, the plants were sprayed with an aqueous spray solution derived from the formulation of the technical active ingredient in 0.6 ml acetone and 45 ml formulation solution containing 10.6% Emulsogen EL (Registry number 61791-12-6), 42.2% N-methylpyrrolidone, 42.2% dipropylene glycol monomethyl ether (Registry number 34590-94-8) and 0.2% X-77 (Registry number 11097-66-8). The test plants were then grown in a greenhouse under optimum conditions until, 14 or 15 days later for post-emergence and 20 days for pre-emergence, the test was evaluated (100=total damage to plant; 0=no damage to plant). Alopecurus myosuroides (ALOMY), Avena fatua (AVEFA), Lolium perenne (LOLPE), Setaria faberi (SETFA), Digitaria sanguinalis (DIGSA), Echinochloa crus-galli (ECHCG) Post-Emergence Activity

Structure (SMILES) | pest or weed control at 125 g/ha [%]
C=CCOC1=C(c2c(CC)cc(C)cc2CC)C(=O)CC2(CCOCC2)C1 [Compound P34] | 0
CCCCCCCCCCCCCC(=O)OC1=C(c2c(CC)cc(C)cc2CC)C(=O)CC2(CCOCC2)C1 [Compound P42] | 50
CCOCOC1=C(c2c(CC)cc(C)cc2CC)C(=O)CC2(CCOCC2)C1 [Compound P35] | 50

System: Avena fatua (AVEFA)
Assay: as above
Type: in vivo
Details: Avena fatua, rate 125 g/ha, evaluated after 14 or 15 days, read-out: Post-emergence activity, AVEFA (100=total damage to plant; 0=no damage to plant)
Description: as §1

Structure (SMILES) | pest or weed control at 125 g/ha [%]
C=CCOC1=C(c2c(CC)cc(C)cc2CC)C(=O)CC2(CCOCC2)C1 [Compound P34] | 0
CCCCCCCCCCCCCC(=O)OC1=C(c2c(CC)cc(C)cc2CC)C(=O)CC2(CCOCC2)C1 [Compound P42] | 40
CCOCOC1=C(c2c(CC)cc(C)cc2CC)C(=O)CC2(CCOCC2)C1 [Compound P35] | 100

System: Digitaria sanguinalis (DIGSA)
Assay: as above
Type: in vivo
Details: Digitaria sanguinalis, rate 125 g/ha, evaluated after 14 or 15 days, read-out: Post-emergence activity, DIGSA (100=total damage to plant; 0=no damage to plant)
Description: as §1

Structure (SMILES) | pest or weed control at 125 g/ha [%]
C=CCOC1=C(c2c(CC)cc(C)cc2CC)C(=O)CC2(CCOCC2)C1 [Compound P34] | 30
CCCCCCCCCCCCCC(=O)OC1=C(c2c(CC)cc(C)cc2CC)C(=O)CC2(CCOCC2)C1 [Compound P42] | 30
CCOCOC1=C(c2c(CC)cc(C)cc2CC)C(=O)CC2(CCOCC2)C1 [Compound P35] | 50

System: Lolium perenne (LOLPE)
Assay: as above
Type: in vivo
Details: Lolium perenne, rate 125 g/ha, evaluated after 14 or 15 days, read-out: Post-emergence activity, LOLPE (100=total damage to plant; 0=no damage to plant)
Description: as §1

Structure (SMILES) | pest or weed control at 125 g/ha [%]
C=CCOC1=C(c2c(CC)cc(C)cc2CC)C(=O)CC2(CCOCC2)C1 [Compound P34] | 0
CCCCCCCCCCCCCC(=O)OC1=C(c2c(CC)cc(C)cc2CC)C(=O)CC2(CCOCC2)C1 [Compound P42] | 50
CCOCOC1=C(c2c(CC)cc(C)cc2CC)C(=O)CC2(CCOCC2)C1 [Compound P35] | 90

System: Alopecurus myosuroides (ALOMY)
Assay: as above
Type: in vivo
Details: Alopecurus myosuroides, rate 125 g/ha, evaluated after 14 or 15 days, read-out: Post-emergence activity, ALOMY (100=total damage to plant; 0=no damage to plant)
Description: as §1

Structure (SMILES) | pest or weed control at 125 g/ha [%]
C=CCOC1=C(c2c(CC)cc(C)cc2CC)C(=O)CC2(CCOCC2)C1 [Compound P34] | 0
CCCCCCCCCCCCCC(=O)OC1=C(c2c(CC)cc(C)cc2CC)C(=O)CC2(CCOCC2)C1 [Compound P42] | 60
CCOCOC1=C(c2c(CC)cc(C)cc2CC)C(=O)CC2(CCOCC2)C1 [Compound P35] | 100

System: Echinochloa crus-galli (ECHCG)
Assay: as above
Type: in vivo
Details: Echinochloa crus-galli, rate 125 g/ha, evaluated after 14 or 15 days, read-out: Post-emergence activity, ECHCG (100=total damage to plant; 0=no damage to plant)
Description: as §1

Structure (SMILES) | pest or weed control at 125 g/ha [%]
C=CCOC1=C(c2c(CC)cc(C)cc2CC)C(=O)CC2(CCOCC2)C1 [Compound P34] | 0
CCCCCCCCCCCCCC(=O)OC1=C(c2c(CC)cc(C)cc2CC)C(=O)CC2(CCOCC2)C1 [Compound P42] | 30
CCOCOC1=C(c2c(CC)cc(C)cc2CC)C(=O)CC2(CCOCC2)C1 [Compound P35] | 100

System: Setaria faberi (SETFA)
Assay: Pre-emergence herbicidal activity, glasshouse pot test
Type: in vivo
Details: Setaria faberi, 480 h, rate 500 g/ha, evaluated after 20 days, read-out: Pre-emergence activity, SETFA (100=total damage to plant; 0=no damage to plant)
Description: as §1, with “Pre-Emergence” for “Post-Emergence”

Structure (SMILES) | pest or weed control at 500 g/ha [%]
C=CCOC1=C(c2c(CC)cc(C)cc2CC)C(=O)CC2(CCOCC2)C1 [Compound P34] | 30
CCOCOC1=C(c2c(CC)cc(C)cc2CC)C(=O)CC2(CCOCC2)C1 [Compound P35] | 100

System: Avena fatua (AVEFA)
Assay: as above
Type: in vivo
Details: Avena fatua, 480 h, rate 500 g/ha, evaluated after 20 days, read-out: Pre-emergence activity, AVEFA (100=total damage to plant; 0=no damage to plant)
Description: as §1, with “Pre-Emergence” for “Post-Emergence”

Structure (SMILES) | pest or weed control at 500 g/ha [%]
C=CCOC1=C(c2c(CC)cc(C)cc2CC)C(=O)CC2(CCOCC2)C1 [Compound P34] | 70
CCCCCCCCCCCCCC(=O)OC1=C(c2c(CC)cc(C)cc2CC)C(=O)CC2(CCOCC2)C1 [Compound P42] | 90
CCOCOC1=C(c2c(CC)cc(C)cc2CC)C(=O)CC2(CCOCC2)C1 [Compound P35] | 100

System: Lolium perenne (LOLPE)
Assay: as above
Type: in vivo
Details: Lolium perenne, 480 h, rate 500 g/ha, evaluated after 20 days, read-out: Pre-emergence activity, LOLPE (100=total damage to plant; 0=no damage to plant)
Description: as §1, with “Pre-Emergence” for “Post-Emergence”

Structure (SMILES) | pest or weed control at 500 g/ha [%]
C=CCOC1=C(c2c(CC)cc(C)cc2CC)C(=O)CC2(CCOCC2)C1 [Compound P34] | 100
CCCCCCCCCCCCCC(=O)OC1=C(c2c(CC)cc(C)cc2CC)C(=O)CC2(CCOCC2)C1 [Compound P42] | 100
CCOCOC1=C(c2c(CC)cc(C)cc2CC)C(=O)CC2(CCOCC2)C1 [Compound P35] | 100

System: Alopecurus myosuroides (ALOMY)
Assay: as above
Type: in vivo
Details: Alopecurus myosuroides, 480 h, rate 500 g/ha, evaluated after 20 days, read-out: Pre-emergence activity, ALOMY (100=total damage to plant; 0=no damage to plant)
Description: as §1, with “Pre-Emergence” for “Post-Emergence”

Structure (SMILES) | pest or weed control at 500 g/ha [%]
C=CCOC1=C(c2c(CC)cc(C)cc2CC)C(=O)CC2(CCOCC2)C1 [Compound P34] | 100
CCCCCCCCCCCCCC(=O)OC1=C(c2c(CC)cc(C)cc2CC)C(=O)CC2(CCOCC2)C1 [Compound P42] | 100
CCOCOC1=C(c2c(CC)cc(C)cc2CC)C(=O)CC2(CCOCC2)C1 [Compound P35] | 100

System: Echinochloa crus-galli (ECHCG)
Assay: as above
Type: in vivo
Details: Echinochloa crus-galli, 480 h, rate 500 g/ha, evaluated after 20 days, read-out: Pre-emergence activity, ECHCG (100=total damage to plant; 0=no damage to plant)
Description: as §1, with “Pre-Emergence” for “Post-Emergence”

Structure (SMILES) | pest or weed control at 500 g/ha [%]
C=CCOC1=C(c2c(CC)cc(C)cc2CC)C(=O)CC2(CCOCC2)C1 [Compound P34] | 30
CCCCCCCCCCCCCC(=O)OC1=C(c2c(CC)cc(C)cc2CC)C(=O)CC2(CCOCC2)C1 [Compound P42] | 100
